# Measured values from patent US20260091030A1, “HIGH-DOSE NALOXONE FORMULATION” (SRI INTERNATIONAL, priority 2022, published 2026).
# How the values were obtained:
# [1] = Initial pH stability of Naloxone hydrochloride in 10 mM buffers pH 3.0-10.6, 7 days (concentration, pH, Noroxymorphone by HPLC); type: physicochemical
# Protocol: FIG. 3 is a graph that depicts the concentration of Naloxone in various buffers at t=0 and t=7. The t=7 represents samples stored at either 40° C. or 60° C. for up to 7 days. […] The 15 mg/ml was chosen for pH stability studies and a final formulation of Naloxone is planned to be at 10 mg/ml strength. The maximum possible solubility of drug substance at various buffers will be performed in a “pH solubility” study. […] Naloxone precipitated in solution maintained at pH 7.4-10.6. The glycine-sodium hydroxide buffer system fared slightly better, however not as well as the buffers that maintained pH at 3.0-6.5. It is likely that buffer strength higher than 10 mM is required for pH 7.0-11 buffer systems. […] Based on the pKa values, solubility of Naloxone is expected to be higher at lower pH conditions.
# FIG. 4 is a graph that depicts the change in pH of Naloxone in various buffers t=0 and t=7. The t=7 represents samples stored at either 40° C. or 60° C. for up to 7 days. FIG. 4 follows the change in pH for the buffered naloxone samples as a function of time and temperature of storage. It appears that higher pH instability and higher temperature degradations are concerns for Naloxone formulations. Optimum buffering of Naloxone appears to occur at pH 3-4.6; at the molarity tested.
# FIG. 5 is a graph that depicts pH-stability of Naloxone after 7 days at room temperature by showing Naloxone and Noroxymorphone concentrations in various buffers assayed by HPLC. Temperature and duration of sample storage are at ambient temperature for 7 days.
# FIG. 6 is a graph that depicts pH-stability of Naloxone after 7 days at 40° C. and 75% relative humidity by showing Naloxone and Noroxymorphone concentrations in various buffers assayed by HPLC. Temperature and duration of sample storage are at 40° C. and 75% relative humidity for 7 days. FIG. 6 follows up on the conclusions drawn from the experiment conducted that underlies FIG. 5. Raising the temperature incudes greater formation of Noroxymorphone, and this effect is more pronounced in formulations with a higher pH.
# FIG. 7 is a graph that depicts pH-stability of Naloxone after 7 days at 60° C. by showing Naloxone and Noroxymorphone concentrations in various buffers assayed by HPLC. Temperature and duration of sample storage are at 60° C. and humidity was not maintained for 7 days. At even higher temperatures, Noroxymorphone was detected in all formulations across all respective pHs.
# Buffers used in intramuscular formulations range from 1-100 mM, but lower molar strengths are known to cause less myotoxicity resulting in less “pain” at the site of injection (Napaporn et al., Pharm. Dev. Technol. 5(1): 123-30 (2000). For the purpose of these initial pH stability experiment, a buffer strength of 10 mM was chosen. Buffers tested ranged from pH 3.0-10.6. Intramuscular formulations below pH 3.0 are extremely rare, owing to excessive acidity which can cause a burning sensation. Table 1 lists the various buffer systems used for this study.
# Buffers were created and mixed to a concentration of 10 mM with the pH stabilized. […] Buffers tested ranged from pH 3.0-10.6. Intramuscular formulations below pH 3.0 are rare due to discomfort associated with the injection site.
# [2] = pH-stability with and without buffering agents under nitrogen gas overlay / excipient compatibility study; type: physicochemical
# Protocol: FIG. 16 is a graph showing pH fluctuations in samples under nitrogen gas overlay, specifically change in pH of Naloxone solutions in water and buffers at pH 3.0 and 4.6 on Day 0 and Day 7. The Day 7 represents samples stored at either room temperature, 40° C. and 75% relative humidity or 60° C. or 25° C. and 60% relative humidity (in amber vials) for up to 7 days.
# Samples prepared for pH-Stability of naloxone with and without buffering agents (citrate and acetate at pH 3.0 and pH 4.6 respectively) under nitrogen gas overlay were left at 40° C.±2° C./75%±5% relative humidity (RH) and at 60° C. for a total of 5 weeks for this excipient compatibility study. A stability storage chamber was used for 40° C.±2° C./75%±5% while a regular oven was used for the 60° C. samples. Briefly, naloxone samples were prepared in 20 ml of water for injection or freshly prepared 10 mM citrate buffer and/or acetate buffer in 25 ml volumetric flask. […] The pH of the naloxone solutions was adjusted to 3.0 and 4.6 with 0.1N HCl solution. Samples were diluted up to the 25 ml mark with water for injection or citrate buffer pH 3.0 or acetate buffer pH 4.6. These naloxone solutions were filtered using 0.22 μm, 13 mm, PVDF (Pall scientific) syringe filters and pH of the filtrate was measured. The filtered solution was aliquoted into 2.0 ml clear, sterile, Type-I glass vials and closed with 13 mm red rubber closures crimped with aluminum blue flip cap seals. All vials were overlaid with nitrogen gas (filtered with 0.22u PTFE, Acro®50 Vent In-Line filter, Pall scientific) before sealing and stored at 40° C.±2° C./75%±5% relative humidity (RH) or 60° C. for 5 weeks. These samples were evaluated for pH, assay and impurities of naloxone at intervals of T=0, 1 week and T=5 weeks. […] These samples were analyzed at T=2 weeks and T=5 weeks for pH, assay and impurities for naloxone. […]
# The pH and assay of naloxone for excipient compatibility samples stored at 40° C.±2° C./75%±5% RH and 60° C. on T=0-day, 1 week and T=5 weeks were evaluated.
# physchem = settings: thermodynamic from solid
structure (smiles),measurement,setting,value
"C=CCN1CC[C@]23c4c5ccc(O)c4O[C@H]2C(=O)CC[C@@]3(O)[C@H]1C5.Cl [Naloxone hydrochloride, (−)-17-Allyl-4, 5 α-epoxy-3,14-dihydroxymorphinan-6-one hydrochloride]",dissolution at 15 mg/ml in buffer,[1]; 10 mM buffer systems at pH 7.4 (sodium phosphate monobasic/dibasic) and pH 10.6 (carbonate-bicarbonate),did not dissolve efficiently
same,pH of optimum buffering,"[1]; 10 mM buffers, up to 7 days at 40° C. or 60° C.",3-4.6
same,Noroxymorphone detected by HPLC,"[1]; 7 days at ambient temperature, pH 7.4 sodium phosphate and pH 10 glycine buffer versus pH lower than 6.5",Greater amounts of Noroxymorphone were detected
same,Noroxymorphone formation by HPLC,"[1]; citrate buffer at pH 3, 7 days at 60° C.",significantly less Noroxymorphone formation than all of the other formulations tested
same,precipitation in solution,[1]; solution maintained at pH 7.4-10.6,precipitated
same,change in pH,"[2]; 10 mM citrate and acetate buffers at pH 3.0 and 4.6, nitrogen overlay, seven days at room temperature, 40° C./75% RH, 60° C., 25° C./60% RH (amber vials)",no change in pH
same,change in pH,"[2]; without buffers at pH 3.0, nitrogen overlay, seven days at room temperature, 40° C./75% RH, 60° C., 25° C./60% RH (amber vials)",no change in pH
same,change in pH,"[2]; without buffers at pH 4.6, nitrogen overlay, seven days",increased
same,solubility,"physchem; pH 5, aqueous buffer",204 mg/mL
same,solubility,"physchem; pH 10, aqueous buffer",90.5 mg/mL
